Laboratory results reported in PMC6332334, “3-H-[1,2]Dithiole as a New Anti-Trypanosoma cruzi Chemotype: Biological and Mechanism of Action Studies” (Molecules, 2015).
Like-named read-outs stand apart in the source and are kept apart here.

Experiments:
[1] = target: T1, Trypanosoma cruzi triosephosphate isomerase (TcTIM) (Trypanosoma cruzi, UniProt P52270); assay: Inhibition of enzymatic activity of TcTIM; format: biochemical; conditions: for inhibition at 25 µM: read-out: TcTIM % Inhib25; for inhibition at 200 µM: read-out: TcTIM % Inhib200; for IC50: isolated enzyme, 2 h incubation at 36 °C
T1 construct: made in house; host or cells: Escherichia coli
Procedure: In order to investigate if the 3H-[1,2]dithioles inhibit TcTIM, we initially tested the inhibitory capacity of the compounds at a concentration of 200 μM and then at 25 μM.
Expression and purification of protein: TcTIM was expressed in Escherichia coli and purified as described in the literature. After purification, the enzyme, dissolved in 100 mM triethanolamine, 10 mM EDTA and 1 mM dithiothreitol (pH 8), was precipitated with ammonium sulfate (75% saturation) and stored at 4 °C. Before use, extensive dialysis against 100 mM triethanolamine/10 mM EDTA (pH 7.4) was performed. Protein concentration was determined by absorbance at 280 nm (ε = 36,440 M^−1·cm^−1).
Enzymatic activity assays. Enzymatic activity was determined following the conversion of glyceraldehyde 3-phosphate into dihydroxyacetone phosphate. The decrease in absorbance at 340 nm was followed in a multicell Cary spectrophotometer at 25 °C. The reaction mixture (1 mL, pH 7.4) contained 100 mM triethanolamine, 10 mM EDTA, 0.2 mM NADH, 1 mM glyceraldehyde 3-phosphate, and 0.9 units of α-glycerol phosphate dehydrogenase. The reaction was initiated by addition of 5 ng/mL of the TcTIM.
For inactivation studies, TcTIM was incubated at a concentration of 5 mg/mL in a buffer containing 100 mM triethanolamine, 10 mM EDTA, pH 7.4 and 10% of DMSO at 36 °C. The mixture also contained the compounds at the indicated concentrations. Compounds were dissolved in DMSO. After 2 h, […] was withdrawn and added to 1 mL of reaction mixture for the activity assay. None of the molecules tested here affected the activity of α-glycerol phosphate dehydrogenase, the enzyme used for trapping the product.
The IC50 value was taken as the concentration of drug needed to reduce the enzymatic activity to 50%. The experiments were performed in triplicate.

[2] = target: T2, cruzipain (Trypanosoma cruzi, UniProt P25779); assay: Inhibition of T. cruzi cruzipain (Z-Phe-Arg-AMC fluorogenic substrate); format: biochemical; conditions: read-out: Cruzipain % Inhib100
T2 construct: endogenous in cells; host or cells: T. cruzi epimastigotes, Tulahuen 2 strain
Procedure: Initially, we tested the dithioles as inhibitors of the protease cruzipain from T. cruzi at a concentration of 100 μM.
Cruzipain was purified to homogeneity from epimastigotes of the Tulahuen 2 strain by ConA-Sepharose affinity chromatography, as previously described. Cruzipain (2.5 μM ε = 58,285 M^−1·cm^−1) was incubated in 50 mM acetate buffer pH 5.5 with 50 mM DTT and 100 μM inhibitor was added, shaking the solution for 15 min at 27 °C. The derivatives were added diluted in DMSO, and the controls contained the same solvent concentration. The concentration of DMSO never exceeded 1% in the reaction medium. E-64 was used as a positive control of inhibition. Then, the fluorogenic substrate Z-Phe-Arg-AMC (100 μM) was added and the fluorescence was measured during 10 min at intervals of 3 s (excitation at 350 nm and emission at 460 nm) using a Varioskan Flash Spectrophotometer. From the slope of the negative control, we calculated the total (100%) enzyme activity, while the slopes obtained in the presence of the compounds yielded the percentage of remaining enzyme activity. The percentage of enzyme inhibition was determined as […]. The experiments were done in duplicate.

[3] = system: epimastigotes of T. cruzi (Tulahuen 2 strain); assay: Anti-T. cruzi test in vitro (epimastigote growth inhibition); format: cell-based, Trypanosoma cruzi; conditions: for IC50: Trypanosoma cruzi, read-out: IC50 against T. cruzi; for SI (selectivity index): macrophages (J774.1) vs T. cruzi epimastigotes
Procedure: (§1) To evaluate the anti-trypanosomal activity of the synthesized 3H-[1,2]dithioles we used T. cruzi, Tulahuen 2 strain (discrete typing unit, DTU, TcVI [18]) in the epimastigote form. […] To establish the selectivity of the compounds against the parasite, unspecific cytotoxicity against mammalian cells (J774.1 murine macrophages) was studied for the most relevant derivatives. The selectivity indexes (SI) were also determined (Table 1).
We used epimastigotes of the Tulahuen 2 strain (DTU, Tc VI) growing in an axenic milieu (BHI-Tryptose). Cells from a 5–7-day-old culture were inoculated in fresh culture milieu to give an initial concentration of 1 × 10^6 cells/mL. The absorbance at 600 nm of the cells in culture was measured every day. At day 5, the milieu was inoculated with different quantities of the compounds from a stock solution in DMSO (DMSO concentration in the culture milieu never exceeded 0.4%). The control was made in the presence of 0.4% DMSO and in the absence of compounds. […] At day 5, the absorbance of the culture was measured and related to the control. The IC50 value was taken as the concentration of drug needed to reduce the absorbance ratio to 50%.

[4] = target: T2, cruzipain; assay: Inhibition of T. cruzi cruzipain (Z-Phe-Arg-AMC fluorogenic substrate); format: biochemical; conditions: isolated enzyme
[5] = system: J774.1 murine macrophages; assay: Unspecific in vitro cytotoxicity of mammalian cells (MTT); format: cell-based; conditions: Mus musculus, 48 h exposure, read-out: IC50 against Macrophages
Procedure: as §1
J774.1 murine macrophage cells (ATCC, Manassas, VA, USA) were grown in DMEM culture milieu containing 4 mM L-glutamine and supplemented with 10% heat-inactivated fetal calf serum. […] Afterwards, cells were exposed for 48 h to the compounds (25–400 μM) or vehicle for control (0.4% DMSO), and additional controls (cells in medium) were used in each test. Cell viability was then assessed by measuring the mitochondria-dependent reduction of MTT (3-(4,5-dimethylthiazol-2-yl)-2,5-diphenyltetrazolium bromide) to formazan. For this purpose, MTT in sterile PBS (0.2% glucose) pH 7.4 was added to the macrophages to achieve a final concentration of 0.1 mg/mL and the cells were incubated at 37 °C for 3 h. After removing the medium, formazan crystals were dissolved in 180 μL of DMSO and 20 μL of MTT buffer (0.1 M glycine, 0.1 M NaCl, 0.5 mM EDTA, pH 10.5) and the absorbance at 560 nm was measured. The IC50 was defined as the drug concentration at which 50% of the cells were viable, relative to the control (no drug added), and was determined by analysis using OriginLab8.5® sigmoidal regression (% of viable cells vs. logarithm of the compound concentration). Samples were performed in triplicate.

[6] = percentage of enzymatic inhibition at 25 μM
[7] = percentage of enzymatic inhibition at 200 μM
[8] = percentage of enzymatic inhibition at 100 μM
[9] = epimastigotes, Tulahuen 2 strain, triplicate

T1 sequence (P52270 whole entry): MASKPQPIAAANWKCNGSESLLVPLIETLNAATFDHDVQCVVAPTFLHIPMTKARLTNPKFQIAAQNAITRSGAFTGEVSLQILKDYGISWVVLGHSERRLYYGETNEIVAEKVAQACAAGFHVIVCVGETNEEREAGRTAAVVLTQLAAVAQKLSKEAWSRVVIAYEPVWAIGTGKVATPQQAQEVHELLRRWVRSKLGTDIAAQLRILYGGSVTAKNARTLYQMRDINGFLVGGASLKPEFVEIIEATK
T2 sequence (P25779 123-467): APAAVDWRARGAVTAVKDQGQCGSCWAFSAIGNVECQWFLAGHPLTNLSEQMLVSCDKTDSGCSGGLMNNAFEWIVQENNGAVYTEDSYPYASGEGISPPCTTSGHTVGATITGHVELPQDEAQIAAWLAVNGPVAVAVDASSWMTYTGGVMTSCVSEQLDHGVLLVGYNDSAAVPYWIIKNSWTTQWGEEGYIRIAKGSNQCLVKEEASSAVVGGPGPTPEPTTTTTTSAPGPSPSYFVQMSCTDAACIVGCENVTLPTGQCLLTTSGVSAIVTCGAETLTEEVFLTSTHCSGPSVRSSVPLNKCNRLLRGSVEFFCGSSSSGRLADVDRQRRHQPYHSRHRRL

Work on COc1ccc(C2=C/C(=C(\SCC(=O)c3ccc4ccccc4c3)C(=O)c3ccc4ccccc4c3)SS2)cc1 [Derivative 17] yielded an inhibition at 25 µM [1, 6] of 52 ± 2.5%, an inhibition at 200 µM [1, 7] of 81% and an inhibition at 100 µM [2, 8] of 82.6 ± 0.6%. It also gave an IC50 [3, 9] of over 25 µM.
Molecule COc1ccc(C2=C/C(=C(\SCC(=O)c3ccccc3)C(=O)c3ccccc3)SS2)cc1 [Derivative 16] has an IC50 [1] of 7.53 ± 0.1 µM, an inhibition at 25 µM [1, 6] of 63 ± 0.1% and an inhibition at 200 µM [1, 7] of 77%. It also gave an inhibition at 100 µM [2, 8] of 62.3 ± 0.3% and an IC50 [3, 9] of over 25 µM.
Work on COc1ccc(-c2cc(=[S+]CC(C)=O)ss2)cc1 [Derivative 19] yielded an IC50 [1] of 3.26 ± 0.05 µM, an inhibition at 25 µM [1, 6] of 73 ± 3.2% and an inhibition at 200 µM [1, 7] of 95%. For the same molecule, the inhibition at 100 µM [2, 8] was 90.5 ± 0.7%, the IC50 [3, 9] was over 25 µM and the “IC50 against T. cruzi” value [3, 9] was “inactive”. The IC50 [4] was 11.3 ± 0.6 µM.
For O=C(COc1ccc(-c2cc(=S)ss2)cc1)c1ccc2ccccc2c1 [Derivative 12], the “TcTIM % Inhib25” value [1, 6] was “ni ^d”, the inhibition at 200 µM [1, 7] was 70% and the inhibition at 100 µM [2, 8] was 91.5 ± 0.6%. For the same molecule, the IC50 [3, 9] was over 25 µM and the IC50 [4] was 21.6 ± 6.1 µM.
For COc1ccc(-c2cc(=[S+]CC(=O)c3ccccc3)ss2)cc1 [Derivative 20], the inhibition at 100 µM [2, 8] was 72 ± 0.1% and the IC50 [3, 9] was over 25 µM.
Molecule O=C(CS/C(C(=O)c1ccccc1)=C1\C=C(c2ccc(O)cc2)SS1)c1ccccc1 [Derivative 13] has an IC50 [1] of 3.35 ± 0.14 µM, an inhibition at 25 µM [1, 6] of 75 ± 6% and an inhibition at 200 µM [1, 7] of 86%. The inhibition at 100 µM [2, 8] was 61 ± 0.3%, the IC50 [5] was 34 ± 0.5 µM and the IC50 [3, 9] was 5.5 ± 0.9 µM. For the same molecule, the “SI (selectivity index)” value [3] was 6.2.
O=C(C[S+]=c1cc(-c2ccc(O)cc2)ss1)c1ccc2ccccc2c1 [Derivative 18] was tested, and the IC50 [1] was 11.03 ± 0.03 µM, the inhibition at 25 µM [1, 6] was 75 ± 0.3% and the inhibition at 200 µM [1, 7] was 70%. It also gave an inhibition at 100 µM [2, 8] of 77.1 ± 0.1% and an IC50 [3, 9] of over 25 µM.
For COc1ccc(-c2cc(=[S+]CC(=O)c3ccc4ccccc4c3)ss2)cc1 [Derivative 21], the inhibition at 200 µM [1, 7] was 65%, the inhibition at 100 µM [2, 8] was 90.2 ± 0.6% and the IC50 [3, 9] was over 25 µM. The IC50 [4] was 17.7 ± 3.9 µM.
For O=C(COc1ccc(-c2cc(=S)ss2)cc1)c1ccccc1 [Derivative 11], the inhibition at 100 µM [2, 8] was 96.3 ± 0.7%, the IC50 [3, 9] was over 25 µM and the IC50 [4] was 17.1 ± 3.6 µM.
With O=C(/C=C/c1ccccc1)Oc1ccc(-c2cc(=S)ss2)cc1 [Derivative 7] the inhibition at 200 µM [1, 7] was 14%, the inhibition at 100 µM [2, 8] was 78.4 ± 0.6% and the IC50 [3, 9] was over 25 µM.
O=C(Oc1ccc(-c2cc(=S)ss2)cc1)c1ccc(/C=C/C(=O)c2ccccc2O)cc1 [Derivative 9] was tested, and the inhibition at 200 µM [1, 7] was 50%, the inhibition at 100 µM [2, 8] was 77.9 ± 0.6% and the IC50 [5] was 63 ± 2 µM. The IC50 [3, 9] was 25 ± 0.5 µM and the “SI (selectivity index)” value [3] was 2.5.
For O=C(Cc1ccccc1)Oc1ccc(-c2cc(=S)ss2)cc1 [Derivative 1], the inhibition at 25 µM [1] was 33 ± 1.9%, the inhibition at 200 µM [1] was 77% and the inhibition at 100 µM [2] was 21.3 ± 0.3%. The IC50 ([3]; TULAHUEN) was over 25 µM.
COc1ccc(-c2cc(=S)ss2)cc1 [Derivative 5] gave an IC50 [1] of 1.2 ± 0.05 µM, an inhibition at 25 µM [1, 6] of 80 ± 2.3% and an inhibition at 200 µM [1, 7] of 86%. For the same molecule, the inhibition at 100 µM [2, 8] was 89 ± 0.5%, the IC50 [3, 9] was over 25 µM and the “IC50 against T. cruzi” value [3, 9] was “inactive”. It also gave an IC50 [4] of 4 ± 2 µM.
CC(=O)COc1ccc(-c2cc(=S)ss2)cc1 [Derivative 10] showed an inhibition at 25 µM [1, 6] of 61 ± 1%, an inhibition at 200 µM [1, 7] of 70% and an inhibition at 100 µM [2, 8] of 73.9 ± 0.1%. The IC50 [3, 9] was over 25 µM.
O=C(/C=C/c1ccc(C(=O)Oc2ccc(-c3cc(=S)ss3)cc2)cc1)c1ccccc1 [Derivative 8] gave an inhibition at 100 µM [2, 8] of 58 ± 0.1% and an IC50 [3, 9] of over 25 µM.
Work on Oc1ccc(-c2cc(=S)ss2)cc1 [Derivative 6] yielded an inhibition at 25 µM [1, 6] of 35 ± 3%, an inhibition at 200 µM [1, 7] of 71% and an inhibition at 100 µM [2, 8] of 59.3 ± 0.3%. For the same molecule, the IC50 [5] was 51 ± 2 µM, the IC50 [3, 9] was 25 ± 1 µM and the “SI (selectivity index)” value [3] was 2.0.
